# Laboratory results from US20040254175A1, “Derivatives of phenoxy-n-'4-(isothiazolindin-1,1-dioxid-2yl)phenyl!-valerian-acid amide and other compounds as inhibitors of the coagulation factor xa in the treatment of thromboembolic diseases and tumors” (priority 2001, published 2004).
# pIC50: −log10 of the molar value. Where a name gives a salt, the structure may show the parent alone.
# Legend:
# TF/FVIIa = TF/FVIIa (Homo sapiens, UniProt P08709); test: Inhibition of TF/factor VIIa (TF/FVIIa-IC50)
# Sequence of TF/FVIIa (P08709 213-466 limits assumed): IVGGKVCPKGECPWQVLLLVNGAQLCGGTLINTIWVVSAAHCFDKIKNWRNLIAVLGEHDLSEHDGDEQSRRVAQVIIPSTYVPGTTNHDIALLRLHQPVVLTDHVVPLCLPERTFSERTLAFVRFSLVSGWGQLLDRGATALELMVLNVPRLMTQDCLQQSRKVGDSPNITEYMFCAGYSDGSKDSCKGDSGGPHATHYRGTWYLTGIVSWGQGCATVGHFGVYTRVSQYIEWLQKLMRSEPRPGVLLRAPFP
# Sequence of TF/FVIIa (P08709 61-212 partner limits assumed): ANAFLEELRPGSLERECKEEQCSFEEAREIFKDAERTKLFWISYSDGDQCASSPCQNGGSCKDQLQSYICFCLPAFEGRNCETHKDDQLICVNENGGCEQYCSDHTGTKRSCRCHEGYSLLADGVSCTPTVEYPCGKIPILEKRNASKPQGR
# Sequence of TF/FVIIa (P13726 33-295 partner): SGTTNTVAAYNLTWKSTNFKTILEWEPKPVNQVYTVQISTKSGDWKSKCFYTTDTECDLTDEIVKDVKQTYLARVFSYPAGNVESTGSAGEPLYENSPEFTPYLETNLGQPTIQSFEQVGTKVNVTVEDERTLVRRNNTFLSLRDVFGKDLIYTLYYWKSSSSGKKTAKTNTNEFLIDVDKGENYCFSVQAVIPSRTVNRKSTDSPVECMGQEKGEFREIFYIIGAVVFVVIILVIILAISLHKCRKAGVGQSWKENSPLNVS
# FXa = FXa (Homo sapiens, UniProt P00742); test: Inhibition of factor Xa (FXa-IC50)
# Sequence of FXa (P00742 235-488 limits assumed): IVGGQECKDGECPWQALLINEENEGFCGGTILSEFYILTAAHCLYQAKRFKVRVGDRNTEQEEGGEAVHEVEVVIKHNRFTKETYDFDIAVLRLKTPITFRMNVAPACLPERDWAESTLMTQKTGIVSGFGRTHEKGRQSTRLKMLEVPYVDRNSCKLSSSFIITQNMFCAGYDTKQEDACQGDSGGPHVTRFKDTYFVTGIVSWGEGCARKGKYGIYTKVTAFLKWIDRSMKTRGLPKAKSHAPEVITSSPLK
# Sequence of FXa (P00742 41-179 partner limits assumed): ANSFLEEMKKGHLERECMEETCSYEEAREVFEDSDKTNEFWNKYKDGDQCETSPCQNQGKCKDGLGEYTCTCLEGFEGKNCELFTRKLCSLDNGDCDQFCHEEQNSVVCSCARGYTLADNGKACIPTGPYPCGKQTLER
pIC50 (TF/FVIIa),pIC50 (FXa),SMILES
6.35,6.46,"CCCC(Oc1cccc(C(=N)N)c1)C(=O)Nc1ccc(N2CCCS2(=O)=O)cc1 (stereo not shown) [AA, 2-(3-amidinophenoxy)-N-[4-(1,1-dioxoisothiazolidin-2-yl)phenyl]valeramide, acetate]"
6.06,6.31,"Cc1cc(NC(=O)C(Nc2cccc(CN)c2)c2ccccc2)ccc1N1CCCS1(=O)=O (stereo not shown) [BB, 2-(3-aminomethylphenylamino)-N-[4-(1,1-dioxoisothiazolidin-2-yl)-3-methylphenyl]-2-phenylacetamide, hydrochloride]"
